The assay has as its system Mia-Paca2 cells (human pancreatic cancer cells). Put plainly: Measurement of cell proliferation in vitro (WST1 colorimetric test, polyhema-coated plates). On the set-up: Observed values (living cells): scale not given here. Conditions: for Compound B1 alone (observed value of living cells) / Compound B5 alone (observed value of living cells): 0 μM = 100; for Compound B4 alone (observed value of living cells) / Compound B2 alone (observed value of living cells) / Compound B3 alone (observed value of living cells): 0 nM = 100. It is filed as cell-based. Here is the method:
The cell line Mia-Paca2 (human pancreatic cancer cells) was acquired from the American Tissue Culture Collection (Rockville, Md., USA).
The Mia-Paca2 cells (1500 cells/wells) are cultured in 96-well plates pre-coated with polyhema (Sigma) which allows only the growth of cells presenting a tumorigenic phenotype.
On day 0, these cells are seeded in 90 μl of Dulbecco's modified Eagle medium (Gibco-Brl, Cergy-Pontoise, France) completed with 10% of foetal calf serum inactivated by heating (Gibco-Brl, Cergy-Pontoise, France), 50000 units/l of penicillin and 50 mg/l streptomycin (Gibco-Brl, Cergy-Pontoise, France), and 2 mM of glutamin (Gibco-Brl, Cergy-Pontoise, France).
The cells were treated with increasing concentrations of two products alone or combined in a matrix, i.e.: on day 1, with the first product for 96 hours and on day 2 with the second product for 72 hours. According to method α, the transduction inhibitor of heterotrimeric G protein signals with which the anti-cancer agent is combined is administered before the latter, then according to method β, it is done so after.
At the end of this period, quantification of cell proliferation is evaluated by a colorimetric test based on the cleavage of the tetrazolium salt WST1 by mitochondrial dehydrogenases in the living cells leading to the formation of formazan (Boehringer Mannheim, Meylan, France). These tests are carried out in duplicate with 4 measurements for each single product and for each combination tested. This allows the number of living cells at the end of each treatment to be determined, i.e. the observed value. The calculated value of the living cells for each treatment corresponds to the multiplication of the observed values of the effects of separate products. These observed and calculated values are compared for each combination. When the observed value of living cells is lower than the calculated value of the living cells, a synergy is considered to exist. When the observed value is equal to the calculated value, a additive effect is considered to exist. When the observed value is greater than the calculated value, an antagonism is considered to exist.

Consider “1-(2-(1-((4-cyano)phenylmethyl)imidazol-4-yl)-1-oxoethyl-2,5-dihydro-4-(2-methoxyphenyl)imidazo[1,2c][1,4]benzodiazepine [compound B1]”, for which the “Compound B1 alone (observed value of living cells)” value reads like this: (B1 0.04 μM alone, Table I) 94 ± 2.3; (B1 0.2 μM alone, Table I) 80 ± 4.2; (B1 1 μM alone, Table I) 68 ± 2.3.

With “4-(2-bromophenyl)-1-(2-(1-((4-cyano-3-methoxy)phenylmethyl)-imidazo-5-yl)-1-oxoethyl)-1,2-dihydro-8-fluoro-imidazo[1,2a][1,4]-benzodiazepine [compound B5]”, the “Compound B5 alone (observed value of living cells)” value reads like this: (B5 0.2 μM alone, Table V) 86 ± 0.9; (B5 1 μM alone, Table V) 63 ± 2.6.

Consider `Cn1cncc1C(N)(c1ccc(Cl)cc1)c1ccc2c(c1)c(-c1cccc(Cl)c1)cc(=O)n2C` (racemic) [compound B4, (±)-4-(3-chlorophenyl)-6-[(4-chlorophenyl)-amino-(1-methyl-1H-imidazol-5-yl)methyl]-1-methyl-2(1H)quinolinone, reference compound], for which the “Compound B4 alone (observed value of living cells)” value (“Compound B4 alone” for short) (B4 40 nM alone, Table IV) is on record as 104 ± 2.0; the “Compound B4 alone” value (B4 0.2 μM alone, Table IV) is on record as 90 ± 9.0; the “Compound B4 alone” value (B4 1 μM alone, Table IV) is listed as 72 ± 3.

Take `Cc1ccccc1-c1cn2c(n1)C(CC1CCCCC1)N(C(=O)C(N)CS)CC2` (stereo not shown) [compound A1, 7-(2-amino-1-oxo-3-thiopropyl)-8-(cyclohexylmethyl)-2-(2-methylphenyl)-5,6,7,8-tetrahydroimidazo[1,2a]pyrazine]: the “Observed values (living cells)” value (A1 20 μM alone (B1 0 μM), method α, n = 4, Table I) worked out at 51 ± 8.9; the “Observed values (living cells)” value (A1 20 μM alone (B2 0 nM), method α, n = 3, Table II) was 49 ± 7.7; the “Observed values (living cells)” value (A1 20 μM alone (B3 0 nM), method α, n = 3, Table III) worked out at 65 ± 7.3.

`NC(CS)C(=O)N1CCn2cc(-c3ccccc3)nc2C1CC1CCCCC1` (stereo not shown) [compound A2, 7-(2-amino-1-oxo-3-thiopropyl)-8-(cyclohexylmethyl)-2-phenyl-5,6,7,8-tetrahydroimidazo[1,2a]pyrazine]: the “Observed values (living cells)” value (A2 20 μM alone (B4 0 nM), method β, n = 2, Table IV) amounted to 42 ± 11.0 and the “Observed values (living cells)” value (A2 20 μM alone (B5 0 μM), method β, n = 3, Table V) is listed as 44 ± 6.4.

In the case of `CC(=O)O[C@H]1C(=O)[C@@]2(C)[C@H]([C@H](OC(=O)c3ccccc3)[C@]3(O)C[C@H](OC(=O)[C@H](O)[C@@H](NC(=O)c4ccccc4)c4ccccc4)C(C)=C1C3(C)C)[C@]1(OC(C)=O)CO[C@@H]1C[C@@H]2O` [compound B2, taxol, reference compound], the “Compound B2 alone (observed value of living cells)” value (“Compound B2 alone” below) (B2 0.8 nM alone, Table II) worked out at 100 ± 5.8; the “Compound B2 alone” value (B2 4 nM alone, Table II) amounted to 100 ± 0.3; the “Compound B2 alone” value (B2 20 nM alone, Table II) is given as 60 ± 10.6.

`Nc1ccn([C@@H]2O[C@H](CO)[C@@H](O)C2(F)F)c(=O)n1` [compound B3, gemcitabine, reference compound]: the “Compound B3 alone (observed value of living cells)” value (shortened to “Compound B3 alone”) (B3 4 nM alone, Table III) was 95 ± 9.8; the “Compound B3 alone” value (B3 20 nM alone, Table III) was 72 ± 11.5; the “Compound B3 alone” value (B3 100 nM alone, Table III) worked out at 62 ± 1.9.

The values above are taken from US7034024B1, “Product inhibiting transduction of G heterotrimeric protein signals combined with another anti-cancer agent for therapeutic use in cancer treatment” (Societe de Conseils de Recherches et d'Applications …, priority 1999, dated 2006).
